# Like-named read-outs stand apart in the source and are kept apart here.
# How the values were obtained:
# Type in all cases: cell-based
# F. graminearum [1] = assay: microbe, parasite or virus in culture
# Magnaporthe grisea = assay: microbe, parasite or virus in culture
# F. graminearum [2] = assay: microbe, parasite or virus in culture; remark: listed apart in the source
# F. oxysporum f. sp. lini = assay: Ex vivo mycelial growth inhibition, growth rate method; conditions: 1 mg/mL
# Description: (§1) 3-(3',4'-methylenedioxy phenyl)-N-n-propyl acrylamide (at a purity of 99%), 3-(3',4'-methylenedioxy phenyl)-piperidine acrylate (at a purity of 99%), the control agents, 96.5% of chlorothalonil technical (non-systemic broad-spectrum fungicide), 97.2% of carbendazim technical (systemic broad-spectrum fungicide), 97.0% of procymidone technical (systemic fungicide), 96.0% of dimethomorphtechnical ((E,Z)-4-[3-(4-chlorphenyl)3-(3,4-dimethoxy phenyl)acryloyl]morpholine, systemic fungicide), 97.0% of azoxystrobin technical (systemic broad-spectrum fungicide).
# (§2) The inhibition of samples for testing on the mycelial growth of plant pathogenic fungi for testing is determined with a growth rate method. 3-(3',4'-methylenedioxy phenyl)-N-n-propyl acrylamide, 3-(3',4'-methylenedioxy phenyl)-piperidine acrylate and five control agents are dissolved with dimethyl sulfoxide (DMSO), then formulated at 5-7 concentrations of different gradients for test following the trial test results, with the same concentration of DMSO as the control solvent, each treatment in triplicate. Fungal cakes with a diameter of 4 mm are taken from the edge of the colony, inoculated into the center of a PDA plate containing different agents of different concentrations and the DMSO control, with one piece of fungal cake inoculated in each plate (with a diameter of […]), and incubated in a constant temperature incubator at a temperature of 22±1.5°C. 7 days later (10-20 days may be needed for some pathogenic fungi), the diameter of the colony is measured with a cross over method according to the mycelial growth profile of the control pathogenic fungi, then the inhibition rate of mycelial growth is calculated.
# (§3) The computational formula is as below: the inhibition rate of mycelial growth (%) = [(the diameter of the control colony - the diameter of the treated colony)/the diameter of the control colony] × 100.
# (§4) The inhibition results of each agent at a concentration of 1 mg/mL on the mycelial growth of plant pathogenic fungi are shown in Tables 1 and 2.
# Sclerotinia sclerotiorum [3] = assay: as above; conditions: 1 mg/mL
# Description: as §1, §2, §3, §4
# Pythium aphanidermatum = assay: as above; conditions: 1 mg/mL
# Description: as §1, §2, §3, §4
# C. gossypii = assay: as above; conditions: 1 mg/mL
# Description: as §1, §2, §3, §4
# Rhizoctonia solani = assay: as above; conditions: Rhizoctonia solani; 1 mg/mL
# Description: as §1, §2, §3, §4
# Botrytis cinerea [4] = assay: as above; conditions: 1 mg/mL
# Description: as §1, §2, §3, §4
# Valsa mali [5] = assay: as above; conditions: 1 mg/mL
# Description: as §1, §2, §3, §4
# Colletotrichum capsici [6] = assay: as above; conditions: 1 mg/mL
# Description: as §1, §2, §3, §4
# [7] = tested on: Botryosphaeria berengeriana; assay: as above; conditions: 1 mg/mL
# Description: as §1, §2, §3, §4
# Phytophthora capsici = assay: as above; conditions: Phytophthora capsici; 1 mg/mL
# Description: as §1, §2, §3, §4
# [8] = tested on: F. oxysporum f. sp. vasinfectum; assay: as above; conditions: 1 mg/mL
# Description: as §1, §2, §3, §4
# [9] = tested on: Botryosphaeriana berengeriana; assay: as above; conditions: 1 mg/mL
# Description: as §1, §2, §3, §4
# Thanatephorus cucumeris = assay: as above; conditions: 1 mg/mL
# Description: as §1, §2, §3, §4
# Exserohilum turcicum [10] = assay: as above; conditions: 1 mg/mL
# Description: as §1, §2, §3, §4
# [11] = tested on: Gaeumannomyces graminis var. graminis and G. graminis var. tritici; assay: as above; conditions: 1 mg/mL
# Description: as §1, §2, §3, §4
# F. verticillioide = assay: as above; conditions: 1 mg/mL
# Description: as §1, §2, §3, §4
# Mycosphaerlla melonis = assay: as above; conditions: 1 mg/mL
# Description: as §1, §2, §3, §4
# Coniella diplodiella = assay: as above; conditions: 1 mg/mL
# Description: as §1, §2, §3, §4
# Sclerotinia sclerotiorum [12] = assay: Toxicity determination (EC50) on mycelial growth, growth rate method
# Protocol: as §2
# (§5) 3-(3',4'-methylenedioxy phenyl)-piperidine acrylate, the control agents 96.5% of chlorothalonil technical and 97.0% of procymidone technical. Agents for testing and the control agents chlorothalonil and procymidone are treated at 5-8 concentrations of different gradients on the basis of preliminary tests to ensure that the inhibition rates for treatments at all the concentrations are between 10% and 90%.
# (§6) For specific determination methods, with reference to Embodiment 1. The concentration of active ingredients in the culture medium is used as the testing concentration to calculate the toxic regression equation (Y=bx+a) and the median inhibition concentration EC50, 95% confidence limit, and relative toxicity. Relative toxicity (compared to chlorothalonil) = EC50 of chlorothalonil / EC50 of 3-(3',4'-methylenedioxy phenyl)-piperidine acrylate, and relative toxicity (compared to procymidone) = EC50 of procymidone / EC50 of 3-(3',4'-methylenedioxy phenyl)-piperidine acrylate.
# Botrytis cinerea [13] = assay: as above
# Protocol: as §2, §5, §6
# Valsa mali [14] = assay: as above
# Protocol: as §2, §5, §6
# Colletotrichum capsici [15] = assay: as above
# Protocol: as §2, §5, §6
# Exserohilum turcicum [16] = assay: as above
# Protocol: as §2, §5, §6
# Phytophthora infestans [17] = assay: microbe, parasite or virus in culture; conditions: 1 mg/mL
# Fusarium graminearum [18] = assay: microbe, parasite or virus in culture
# Fusarium graminearum [19] = assay: microbe, parasite or virus in culture; remark: listed apart in the source
# Phytophthora infestans [20] = conditions: Phytophthora infestas; 1 mg/mL
# Pyricularia grisea = assay: microbe, parasite or virus in culture
# Phytophthora infestans [21] = assay: microbe, parasite or virus in culture
# [22] = EC50 of chlorothalonil / EC50 of agent
# [23] = EC50 of procymidone / EC50 of agent
# [24] = median inhibition concentration
compound,measurement,setting,value
"N#Cc1c(Cl)c(Cl)c(Cl)c(C#N)c1Cl [Chlorothalonil, chlorothalonil]",Relative Toxicity (Compared to Chlorothalonil),F. graminearum [1]; [22],1.00
same,Relative Toxicity (Compared to Procymidone),F. graminearum [1]; [23],3.75
same,EC50,"F. graminearum [1]; Fusarium graminearum, median inhibition concentration",227 mg/L
same,Relative Toxicity (Compared to Chlorothalonil),Magnaporthe grisea; [22],1.00
same,Relative Toxicity (Compared to Procymidone),Magnaporthe grisea; [23],0.71
same,EC50,"Magnaporthe grisea; Pyricularia oryzae, median inhibition concentration",436 mg/L
same,Average Diameter of the Colony,"F. graminearum [2]; F. graminearum, 1 mg/mL",1.92 cm
same,inhibition at 1000 µg/mL,"F. graminearum [2]; Fusarium graminearum, read-out: Inhibition Rate",77.7%
same,Average Diameter of the Colony,F. oxysporum f. sp. lini,3.73 cm
same,inhibition at 1000 µg/mL,F. oxysporum f. sp. lini; Fusarium oxysporum,58.6%
same,Average Diameter of the Colony,Sclerotinia sclerotiorum [3],0.00 cm
same,inhibition at 1000 µg/mL,Sclerotinia sclerotiorum [3],100%
same,Average Diameter of the Colony,Pythium aphanidermatum,1.14 cm
same,inhibition at 1000 µg/mL,Pythium aphanidermatum,83%
same,Average Diameter of the Colony,C. gossypii; C. gossypii,1.45 cm
same,inhibition at 1000 µg/mL,"C. gossypii; Colletotrichum gossypii, C. cossypii, read-out: Inhibition Rate",73.2%
same,Average Diameter of the Colony,Rhizoctonia solani,0.00 cm
same,inhibition at 1000 µg/mL,Rhizoctonia solani,100%
same,Average Diameter of the Colony,Botrytis cinerea [4],1.16 cm
same,inhibition at 1000 µg/mL,Botrytis cinerea [4],84.5%
same,Average Diameter of the Colony,Valsa mali [5],1.65 cm
same,inhibition at 1000 µg/mL,Valsa mali [5]; Cytospora mali,79.1%
same,Average Diameter of the Colony,Colletotrichum capsici [6],1.95 cm
same,inhibition at 1000 µg/mL,Colletotrichum capsici [6]; Colletotrichum truncatum,71.2%
same,Average Diameter of the Colony,[7],2.11 cm
same,inhibition at 1000 µg/mL,[7],69%
same,Average Diameter of the Colony,Phytophthora capsici,0.91 cm
same,inhibition at 1000 µg/mL,Phytophthora capsici,82.8%
same,Average Diameter of the Colony,[8],2.45 cm
same,inhibition at 1000 µg/mL,[8]; Fusarium oxysporum,66.2%
same,Average Diameter of the Colony,[9],0.94 cm
same,inhibition at 1000 µg/mL,[9],83.5%
same,Average Diameter of the Colony,Thanatephorus cucumeris,1.05 cm
same,inhibition at 1000 µg/mL,Thanatephorus cucumeris,87.8%
same,Average Diameter of the Colony,Exserohilum turcicum [10],1.41 cm
same,inhibition at 1000 µg/mL,Exserohilum turcicum [10],77.3%
same,Average Diameter of the Colony,[11],2.51 cm
same,inhibition at 1000 µg/mL,[11],64.9%
same,Average Diameter of the Colony,F. verticillioide,0.87 cm
same,inhibition at 1000 µg/mL,F. verticillioide,74.3%
same,Average Diameter of the Colony,Mycosphaerlla melonis,2.16 cm
same,inhibition at 1000 µg/mL,Mycosphaerlla melonis,74.9%
same,Average Diameter of the Colony,Coniella diplodiella,0.00 cm
same,inhibition at 1000 µg/mL,Coniella diplodiella,100%
same,Relative Toxicity (Compared to Chlorothalonil),Sclerotinia sclerotiorum [12]; [22],1.00
same,Relative Toxicity (Compared to Procymidone),Sclerotinia sclerotiorum [12]; [23],1.13
same,EC50,Sclerotinia sclerotiorum [12]; [24],62.7 mg/L
same,Relative Toxicity (Compared to Chlorothalonil),Botrytis cinerea [13]; [22],1.00
same,Relative Toxicity (Compared to Procymidone),Botrytis cinerea [13]; [23],0.45
same,EC50,Botrytis cinerea [13]; [24],177 mg/L
same,EC50,"Valsa mali [14]; Cytospora mali, median inhibition concentration, read-out: EC50",418 mg/L
same,Relative Toxicity (Compared to Chlorothalonil),Valsa mali [14]; [22],1.00
same,Relative Toxicity (Compared to Procymidone),Valsa mali [14]; [23],1.02
same,EC50,"Colletotrichum capsici [15]; Colletotrichum truncatum, median inhibition concentration, read-out: EC50",404 mg/L
same,Relative Toxicity (Compared to Chlorothalonil),Colletotrichum capsici [15]; [22],1.00
same,Relative Toxicity (Compared to Procymidone),Colletotrichum capsici [15]; [23],1.28
same,Relative Toxicity (Compared to Chlorothalonil),Exserohilum turcicum [16]; [22],1.00
same,Relative Toxicity (Compared to Procymidone),Exserohilum turcicum [16]; [23],0.26
same,EC50,"Exserohilum turcicum [16]; median inhibition concentration, read-out: EC50",411 mg/L
same,Average Diameter of the Colony,Phytophthora infestans [17],0.20 cm
same,Relative Toxicity (Compared to Chlorothalonil),Fusarium graminearum [18]; [22],1.00
same,Relative Toxicity (Compared to Procymidone),Fusarium graminearum [18]; [23],0.31
same,EC50,Fusarium graminearum [18]; [24],469 mg/L
same,Average Diameter of the Colony,Fusarium graminearum [19]; 1 mg/mL,0.71 cm
same,inhibition at 1000 µg/mL,Fusarium graminearum [19]; read-out: Inhibition Rate,86.7%
same,Average Diameter of the Colony,Phytophthora infestans [20],1.78 cm
same,Average Diameter of the Colony,Pyricularia grisea; 1 mg/mL,1.63 cm
same,inhibition at 1000 µg/mL,Pyricularia grisea; read-out: Inhibition Rate,81.9%
same,Relative Toxicity (Compared to Chlorothalonil),Phytophthora infestans [21]; [22],1.00
same,Relative Toxicity (Compared to Procymidone),Phytophthora infestans [21]; [23],6.78
same,EC50,Phytophthora infestans [21]; [24],115 mg/L
